Where two headings read alike, the source gives them in different places.
How the values were obtained:
locomotor activity = experiment: Rat locomotor activity (hyperactivity) assay, open field; type: in vivo, male CD rats; conditions: for Onset of increased locomotor activity post-administration / End of locomotor effect, time post administration: (Id) 10 to 300 μg/kg p.o.; for End of locomotor effect, time post administration: recording to the 415-minute time point
Method: In total, 206 male CD rats (Charles River, Germany) weighing 200-250 grams (165-190 grams upon arrival) were used in the study. Animals were housed at a standard temperature (22±1° C.) and in a light-controlled environment (lights on from 7 am to […]) with ad libitum access to food and water. The experiment described below was performed in accordance with the standard operating procedures of Charles River Discovery Research Services Finland Ltd. and in accordance with the national Animal Experiment Board of Finland (Eläinkoelautakunta, ELLA) authority on animal testing.
The test device is a square Plexiglass-arena (measuring 40×40×40 cm), in which the movement paths of the rats are recorded by an activity monitor (Med. Associates Inc.). Before the test period is initiated, rats are habituated to their test cage for 60 minutes. Upon completion of habituation, animals were treated with either compound or vehicle and placed back into the open field apparatus. The main test parameter measured is ambulatory distance (recorded in 5 minute segments). Overall time of measurement after receiving initial treatment was 360 minutes. Total follow up period in the study was 420 minutes, including 60 minutes of habituation.
Apomorphine and pramipexole were also concomitantly tested in this assay as comparators (i.e. known standard-of-care (SoC) in the Parkinson's Disease field), and plasma concentration was analyzed for apomorphine.

human D2 receptor = human D2 receptor (Homo sapiens (Human), UniProt P14416); experiment: Dopamine D2 receptor agonism, calcium mobilization assay; type: cell-based; conditions: HEK293/G15 cells expressing human D2 receptor; calcium flux
Method: Dopamine D2 receptor agonism was measured using a calcium mobilization assay protocol developed by HD Biosciences (China). Briefly, HEK293/G15 cells expressing human D2 receptor were plated at a density of 15000 cells/well in clear-bottomed, Matrigel-coated 384-well plates and grown for 24 hours at 37° C. in the presence of 5% CO2. The cells were incubated with calcium-sensitive fluorescent dye, Fluo8, for 60-90 minutes at 37° C. in the dark. Test compounds were prepared at 3-fold concentrated solution in 1×HBSS buffer with Ca^2. and Mg^2+. Calcium Flux signal was immediately recorded after compounds were added from compound plate to cell plate at FLIPR (Molecular Devices). The fluorescence data were normalized to yield responses for no stimulation (buffer) and full stimulation (1 μM of dopamine) of 0% and 100%. stimulation, respectively. Test compound potency (EC50) was estimated by nonlinear regression using the sigmoidal dose-response (variable slope) using Xlfit 4 (IDBS, Guildford, Surrey, UK, model 205).
(§1) where y is the normalized ratio measurement for a given concentration of test compound, x is the concentration of test compound, A is the estimated efficacy at infinite compound dilution, and B is the maximal efficacy. C is the EC50 value and D is the Hill slope coefficient. EC50 estimates were obtained from independent experiment and the logarithmic average was calculated.

[1] = Conversion of compound (Id) to compound (I) in rat hepatocytes; type: in vitro ADME; conditions: 1 μg/mL, 37° C., up to 60 minutes
Method: (§2) The cell concentration at incubation was 1×10^6 viable cells/mL. The incubations were performed in glass tubes at 37° C. with a total incubation volume of 3.5 mL and with duplicate incubations for each test item. The 3.5 mL of hepatocyte suspension was equilibrated for 10 minutes in a water bath set to 37° C. where after the incubations were initiated by adding 3.5 μL of a stock solution of the test item in DMSO (Dimethyl sulfoxide) and gently inverting the tubes. The final solvent concentration in the incubations was 0.1% DMSO. Samples of 600 μL were withdrawn from the incubations at the pre-determined time points of 0.25, 5, 15, 30 and 60 minutes after ensuring homogeneity of hepatocyte suspensions. The withdrawn volume was added to 1 mL Nunc cryotubes on wet ice containing 60 μL of ice-cold ascorbic acid (100 mg/mL) and 30 μL of ice cold 100 mM saccharic acid 1.4-lactone in 0.5 M citric acid. The tubes were mixed and 35 μL of a solution of ice cold 20% formic acid was added. The tubes were mixed thoroughly and stored at −80° C. awaiting analysis.

human D1 receptor = human D1 receptor (Homo sapiens (Human), UniProt P21728); experiment: Dopamine D1 receptor agonism, HTRF cAMP assay; type: cell-based
Method: Dopamine D1 receptor agonism was measured using a HTRF cAMP from CisBio using the protocol developed by HD Biosciences (China). Briefly, the assay is a homogeneous time resolved-fluorescence resonance energy transfer (HTRF) assay that measures production of cAMP by cells in a competitive immunoassay between native cAMP produced by cells and cAMP-labeled with XL-665. A cryptate-labeled anti-cAMP antibody visualizes the tracer. The assay was performed in accordance with instructions from manufacturer.
Test compounds were added to wells of microplates (384 format). HEK-293 cells expressing the human D1 receptor were plated at 1000 cells/well and incubated 30 minutes at room temperature. cAMP-d2 tracer was added to wells and followed by addition of Anti-cAMP antibody-cryptate preparation and incubated for 1 hour at room temperature in dark. HTRF cAMP was measured by excitation of the donor with 337 nm laser (the “TRF light unit”) and subsequent (delay time 100 microseconds) measurement of cryptate and d2 emission at 615 nm and 665 nm over a time window of 200 microseconds with a 2000 microseconds time window between repeats/100 flashes). HTRF measurements were performed on an Envision microplate reader (PerkinElmer). The HTRF signal was calculated as the emission-ratio at 665 nm over 615 nm. The HTRF ratio readout for test compounds was normalized to […] and 100% stimulation using control wells with DMSO-solvent or 30 μM dopamine. Test compound potency (EC50) was estimated by nonlinear regression using the sigmoidal dose-response (variable slope) using Xlfit 4 (IDBS, Guildford, Surrey, UK, model 205).
y=(A+((B−A)/(1+((C/x)^D))))
as §1, with “normalized HTRF” for “normalized”, “from an” for “from”

[2] = Conversion of compound (Id) to compound (I) in fresh human blood; type: in vitro ADME; conditions: 1 μg/mL, 37° C., up to 60 minutes
Method: (§3) Conversion of (Id) in human blood (average of 3 donors) and rat blood (average of […]) to (1) was shown in fresh blood at 37° C. spiked with 1 μg/mL of (Id). (1) was measured at 0, 5, 15, 30 and 60 minutes in isolated plasma. Analysis method and Instrumentation as described in Examples 9 and 10 below in the section “Instrumentation used for analysis of compound (I) from dosing of compounds (Ic) and (d).”

[3] = In vivo conversion of compound (Id) to compound (I) after oral dosing in minipigs
[4] = PK experiments in rats: plasma compound (I) after oral dosing of prodrugs; type: in vivo, Han Wistar rats; conditions: Wistar rats, oral dosing of the prodrug
Method: Plasma was placed on water-ice following collection. Final storage at approximately −70° C.
Instrumentation Used for Analysis of Compound (I) from Dosing Compound (Ia):
Mobile phase B: Acetonitrile. […] Flow rate 0.5 mL/min.
The rats had unrestricted access to the diet.
Instrumentation Used for Analysis of Compound (I) from Dosing of Compound (Ib):
Mobile phase B: Acetonitrile+0.2% formic acid. […] Flow rate 0.3 mL/min.
Dosing and blood sampling for compound (Ic): Han Wistar rats were supplied by Envigo, UK. […] The rats received a standard laboratory diet Teklad 2014C. The rats had unrestricted access to the diet. […] Rats were given 494 μg/kg (Ic).

[5] = Conversion of compound (Id) to compound (I) in human hepatocytes; type: in vitro ADME; conditions: 1 μg/mL, 37° C., up to 60 minutes
Method: as §2

[6] = Conversion of compound (Id) to compound (I) in fresh rat blood; type: in vitro ADME; conditions: 1 μg/mL, 37° C., up to 60 minutes
Method: as §3

[7] = in man after oral dosing; cited from earlier work
human 5-HT2B receptor = human 5-HT2B receptor (Homo sapiens (Human), UniProt P41595); experiment: 5-HT2B agonist activity assay (IP1 production, HTRF); type: cell-based; conditions: for 5-HT2B agonist effect at single concentration: percent of control response to 1 μM 5-HT; for EC50: CHO cells expressing human 5-HT2B, IP1 production
Method: Evaluation of the agonist activity of compounds (I), (Ia)(Ib), (Ic), and (Id) at the human 5-HT2B receptor was performed by Eurofins/Cerep (France) measuring the compound effects on inositol monophosphate (IP1) production using the HTRF detection method. Briefly, the human 5-HT2B receptor was expressed in transfected CHO cells. The cells were suspended in a buffer containing 10 mM Hepes/NaOH (pH 7.4), 4.2 mM KCl, 146 mM NaCl, 1 mM CaCl2, 0.5 mM MgCl2, 5.5 mM glucose and 50 mM LiCl, then distributed in microplates at a density of 4100 cells/well and incubated for 30 minutes at 37° C. in the presence of buffer (basal control), test compound or reference agonist. For stimulated control measurement, separate assay wells contained 1 μM 5-HT. Following incubation, the cells were lysed and the fluorescence acceptor (fluorophen D2-labeled IP1) and fluorescence donor (anti-IP1 antibody labeled with europium cryptate) were added. After 60 minutes at room temperature, the fluorescence transfer was measured at lambda (Ex) 337 nm and lambda(Em) 620 and 665 nm using a microplate reader (Rubystar, BMG). The IP1 concentration was determined by dividing the signal measured at 665 nm by that measured at 620 nm (ratio). The results were expressed as a percent of the control response to 1 μM 5-HT. The standard reference agonist was 5-HT, which was tested in each experiment at several concentrations to generate a concentration-response curve from which its EC50 value is calculated as described above for dopamine functional assays.

[8] = Liu et al., Bioorganic Med. Chem. (2008); cited from earlier work
[9] = apomorphine 3 mg/kg s.c., pramipexole 0.3 mg/kg s.c.
[10] = HEK-293 cells expressing human D1 receptor, cAMP HTRF, read-out: D1 EC50

Chain of human D2 receptor (P14416 whole entry): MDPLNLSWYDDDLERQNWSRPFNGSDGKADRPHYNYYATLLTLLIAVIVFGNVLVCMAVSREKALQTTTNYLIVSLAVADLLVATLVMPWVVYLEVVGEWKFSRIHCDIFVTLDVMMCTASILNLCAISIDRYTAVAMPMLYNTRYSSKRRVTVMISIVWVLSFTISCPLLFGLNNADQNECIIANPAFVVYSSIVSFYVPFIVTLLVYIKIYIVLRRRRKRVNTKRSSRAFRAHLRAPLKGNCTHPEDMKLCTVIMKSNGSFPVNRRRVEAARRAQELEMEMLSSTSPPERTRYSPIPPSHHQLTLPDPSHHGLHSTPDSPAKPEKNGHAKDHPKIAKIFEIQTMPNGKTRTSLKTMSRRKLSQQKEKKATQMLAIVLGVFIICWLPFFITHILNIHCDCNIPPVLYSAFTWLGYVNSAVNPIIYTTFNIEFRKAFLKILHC
Chain of human 5-HT2B receptor (P41595 whole entry): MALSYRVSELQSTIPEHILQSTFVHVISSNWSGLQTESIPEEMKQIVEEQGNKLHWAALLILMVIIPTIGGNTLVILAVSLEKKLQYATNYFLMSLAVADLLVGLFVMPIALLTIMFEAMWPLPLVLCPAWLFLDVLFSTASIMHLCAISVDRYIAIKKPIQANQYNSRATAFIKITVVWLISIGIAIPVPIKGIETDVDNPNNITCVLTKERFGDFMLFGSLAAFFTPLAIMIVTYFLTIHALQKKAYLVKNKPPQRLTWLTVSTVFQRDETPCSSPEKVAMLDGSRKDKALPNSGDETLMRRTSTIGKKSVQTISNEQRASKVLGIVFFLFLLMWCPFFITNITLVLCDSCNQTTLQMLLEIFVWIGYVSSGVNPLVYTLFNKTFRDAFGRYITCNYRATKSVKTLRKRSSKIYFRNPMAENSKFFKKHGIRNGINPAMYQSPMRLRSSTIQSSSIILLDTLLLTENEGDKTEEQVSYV
Chain of human D1 receptor (P21728 whole entry): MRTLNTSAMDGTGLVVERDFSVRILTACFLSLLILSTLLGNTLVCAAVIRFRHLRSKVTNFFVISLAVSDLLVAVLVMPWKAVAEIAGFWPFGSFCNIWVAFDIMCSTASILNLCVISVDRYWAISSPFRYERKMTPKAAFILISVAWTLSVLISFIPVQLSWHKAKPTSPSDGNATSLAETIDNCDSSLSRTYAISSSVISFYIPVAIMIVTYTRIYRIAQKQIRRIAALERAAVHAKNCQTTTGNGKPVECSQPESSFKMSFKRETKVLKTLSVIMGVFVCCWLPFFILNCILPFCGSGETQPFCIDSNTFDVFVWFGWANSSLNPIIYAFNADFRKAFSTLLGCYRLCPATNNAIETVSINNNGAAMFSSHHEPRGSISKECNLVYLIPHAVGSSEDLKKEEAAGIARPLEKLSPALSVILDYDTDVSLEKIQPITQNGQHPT

| SMILES | Onset of increased locomotor activity post-administration (locomotor activity; [9]) | EC50 (human D2 receptor) [nM] | EC50 (human D1 receptor; [10]) [nM] | Plasma profile of compound (I) after oral dosing (in words) [4] | EC50 (human 5-HT2B receptor) [nM] | other results |
| --- | --- | --- | --- | --- | --- | --- |
| CCCN[C@H]1CCc2nc(N)sc2C1 [Pramipexole, pramipexole] | about 1 hours | – | – | – | – | Locomotor effect gone, time after its appearance (locomotor activity; pramipexole 0.3 mg/kg s.c., at the 270-minute time point): 2.5 h |
| CCCN1CCC[C@@H]2Cc3c(ccc(O)c3O[C@@H]3O[C@H](C(=O)O)[C@@H](O)[C@H](O)[C@H]3O)C[C@H]21 [Compound (Id), (2S,3S,4S,5R,6S)-3,4,5-trihydroxy-6-(((4aR,10aR)-7-hydroxy-1-propyl-1,2,3,4,4a,5,10,10a-octahydrobenzo[g]quinolin-6-yl)oxy)tetrahydro-2H-pyran-2-carboxylic acid] | ~2 h | 1100 | 2700 | slower absorption rate avoiding rapid peak concentrations accompanied by a sustained exposure of compound (I) in plasma | – | Conversion to compound (I) [1]: time dependent conversion; End of locomotor effect, time post administration (locomotor activity; apomorphine 3 mg/kg s.c.): lasting until the end of recording; Total distance travelled (locomotor activity; versus vehicle, (Id) 10-300 μg/kg p.o., apomorphine 3 mg/kg s.c., pramipexole 0.3 mg/kg s.c.): significantly increased activity; Conversion to compound (I) [2]: time dependent conversion; In vivo conversion to compound (I) [3]: observed; Conversion to compound (I) [5]: time dependent conversion; Conversion to compound (I) [6]: time dependent conversion |
| CCCc1cc2c(s1)CN[C@@H]1CCc3cc(OC(C)=O)c(OC(C)=O)cc3[C@@H]21 [adrogolide] | – | – | – | – | – | Oral bioavailability [7]: ~4% |
| CCCN1CCC[C@@H]2CC3=C(CCCC3=O)C[C@H]21 [Compound (Ia)] | – | > 1000 | > 1000 | early and high peak concentrations of compound (I) | > 6000 | 5-HT2B agonist effect at single concentration (human 5-HT2B receptor; @30 μM): 58% |
| CCCN1CCC[C@@H]2Cc3c(ccc(OC(=O)C(C)(C)C)c3OC(=O)C(C)(C)C)C[C@H]21 [(Ic)] | – | – | – | extremely low | – | 5-HT2B agonist effect at single concentration (human 5-HT2B receptor; @10 μM): −5%@10 μM |
| CN1CCc2cccc3c2[C@H]1Cc1ccc(O)c(O)c1-3 [apomorphine] | immediate | – | – | – | – | End of locomotor effect, time post administration (locomotor activity; apomorphine 3 mg/kg s.c.): 1.5 h |
| CCCN1CCC[C@@H]2Cc3c(ccc(O)c3O)C[C@H]21 [Compound (I), (4aR,10aR)-1-Propyl-1,2,3,4,4a,5,10,10a-octahydro-benzo[g]quinoline-6,7-diol] | – | 1.3 | 3.3 | – | 2900 | Oral bioavailability (in words) [8]: low oral bioavailability |
| CCCN1CCC[C@@H]2Cc3c(ccc4c3OCO4)C[C@H]21 [Compound (Ib)] | – | 46 | – | early and high peak concentrations of compound (I) | 3.8 | EC50 (human D1 receptor): > 1000 nM; 5-HT2B receptor agonism (in words) (human 5-HT2B receptor): agonist of the 5-HT2B receptor |

Reference: patent publication US20240352055A1, “PROCESS FOR THE MANUFACTURE OF (2S,3S,4S,5R,6S)-3,4,5-TRIHYDROXY-6-(((4AR,10AR)-7-HYDROXY-1-PROPYL-1,2,3,4,4A,5,10,10A-OCTAHYDROBENZO[G]QUINOLIN-6-YL)OXY)TETRAHYDRO-2H-PYRAN-2-CARBOXYLIC ACID” (H. LUNDBECK A/S, priority 2019, published 2024)
